This is an account of results in US9457033B2, “Steroid alkaloids and uses thereof as antimicrobial agents against electron transport-deficient microbes and as potentiators for antimicrobial agents against pathogenic bacteria” (priority 2011, dated 2016).

The test system of assay [1] is S. aureus CF1A-L. The assay can be described thus: MIC, microdilution in CAMHB 24 h. Format: cell-based, Staphylococcus aureus. As to conditions: Staphylococcus aureus, CF1AL; CF1A-L; Human (CF lungs); read-out: MIC. For orientation: In broth dilution the organism is exposed to a series of concentrations in liquid medium.
The subject of assay [2] is S. aureus CF7A-L. The assay can be described thus: MIC, microdilution in CAMHB 24 h. The following applies: Staphylococcus aureus; CF7A-L; Human (CF lungs); MRSA; read-out: MIC. Format: cell-based, Staphylococcus aureus.
The test system of assay [3] is S. aureus CF35A-L. Description: MIC, microdilution in CAMHB 24 h. Format: cell-based, Staphylococcus aureus. The following applies: Staphylococcus aureus; CF35A-L; Human (CF lungs); MRSA; read-out: MIC.
For assay [4], the system named is S. aureus CF4B-L. Description: MIC, microdilution in CAMHB 24 h. Format: cell-based, Staphylococcus aureus. The following applies: Staphylococcus aureus, CF4BL; CF4B-L; Human (CF lungs); read-out: MIC.
Assay [5] deals with S. aureus Sa228c. Description: MIC, microdilution in CAMHB 24 h. Format: cell-based, Staphylococcus aureus. The following applies: Staphylococcus aureus, MRSA.
Assay [6] concerns S. aureus ATCC 29213. Description: MIC, microdilution in CAMHB 24 h, with or without tomatidine/compound. The following applies: ATCC 29213; for Fold (−TO/+TO): tomatidine at 8 μg/ml; for MIC: Staphylococcus aureus, ATCC29213. Format: cell-based, Staphylococcus aureus.
Assay [7] deals with S. aureus MRSA COL. The assay can be described thus: MIC, microdilution in CAMHB 24 h. Format: cell-based, Staphylococcus aureus. The following applies: Staphylococcus aureus; MRSA COL; Human (SSTI); read-out: MIC.
Assay [8] has as its system S. aureus SHY97-3906. The assay can be described thus: MIC, microdilution in CAMHB 24 h. Format: cell-based, Staphylococcus aureus. The following applies: Staphylococcus aureus, SHY973906; SHY97-3906; Cow (mastitis); read-out: MIC.
For assay [9], the system named is S. aureus Sa220c. Description: MIC, microdilution in CAMHB 24 h. Format: cell-based, Staphylococcus aureus. The following applies: Staphylococcus aureus; Sa220c; Human (SSTI); MRSA; read-out: MIC.
Assay [10] has as its system S. aureus 8325-4. Description: MIC, microdilution in CAMHB 24 h. Format: cell-based, Staphylococcus aureus. As to conditions: Staphylococcus aureus, 83254; 8325-4; Laboratory strain; read-out: MIC.
In assay [11] the test system is S. aureus CF6B-L. The assay can be described thus: MIC, microdilution in CAMHB 24 h. Format: cell-based, Staphylococcus aureus. As to conditions: Staphylococcus aureus, CF6BL; CF6B-L; Human (CF lungs); read-out: MIC.
Assay [12] concerns S. aureus ATCC 29213. Description: MICs of control antibiotics for macromolecular biosynthesis assays. As to conditions: Staphylococcus aureus, ATCC29213; ATCC 29213; data not shown; read-out: MIC. Format: cell-based.
The test system of assay [13] is S. aureus CF9A-L. Description: MIC, microdilution in CAMHB 24 h. Format: cell-based, Staphylococcus aureus. The following applies: Staphylococcus aureus; CF9A-L; Human (CF lungs); MRSA; read-out: MIC.
In assay [14] the test system is S. aureus CF07-L. The assay can be described thus: MIC, microdilution in CAMHB 24 h. Format: cell-based, Staphylococcus aureus. As to conditions: Staphylococcus aureus, CF07L; CF07-L; Human (CF lungs); read-out: MIC.
In assay [15] the test system is S. aureus Newbould. Description: MIC, microdilution in CAMHB 24 h. As to conditions: Staphylococcus aureus; Newbould; Cow (mastitis); read-out: MIC. Format: cell-based, Staphylococcus aureus.
Assay [16] deals with S. aureus Newman. Description: MIC, microdilution in CAMHB 24 h. As to conditions: Staphylococcus aureus; Newman; Human (Osteo); read-out: MIC. Format: cell-based, Staphylococcus aureus.
Assay [17] concerns S. aureus CF2A-L. The assay can be described thus: MIC, microdilution in CAMHB 24 h. Format: cell-based. As to conditions: Staphylococcus aureus, CF2AL; CF2A-L; Human (CF lungs); read-out: MIC.
For assay [18], the system named is S. aureus Mu50. Description: MIC, microdilution in CAMHB 24 h. Format: cell-based, Staphylococcus aureus. As to conditions: Staphylococcus aureus; Mu50; Human (SSTI); MRSA, VISA; read-out: MIC.
The test system of assay [19] is protein, DNA, RNA and cell wall peptidoglycan biosynthesis in ATCC 29213. Description: Macromolecular biosynthesis assay, incorporation of radiolabeled precursors. Format: cell-based, Staphylococcus aureus. As to conditions: control antibiotics at approximately 4×MIC; FIG. 3A.
Assay [20] relates to S. aureus CF8E-L. The assay can be described thus: MIC, microdilution in CAMHB 24 h. Format: cell-based, Staphylococcus aureus. The following applies: Staphylococcus aureus, CF8EL; CF8E-L; Human (CF lungs); read-out: MIC.
The subject of assay [21] is S. aureus ATCC 29213. The assay can be described thus: MIC, microdilution in BHI 48 h (Examples 1, 3). Format: cell-based, Staphylococcus aureus.
In assay [22] the test system is S. aureus N315. Description: microbe, parasite or virus in culture. Format: cell-based, Staphylococcus aureus. As to conditions: Staphylococcus aureus, MRSA.
Assay [23] concerns S. aureus ATCC 43300. Description: MIC, microdilution in CAMHB 24 h. Format: cell-based, Staphylococcus aureus. The following applies: Staphylococcus aureus, ATCC 43300 / MRSA; ATCC 43300; Human (HA); MRSA; read-out: MIC.
Assay [24] deals with S. aureus CF1A-L (normal strain). The assay can be described thus: MIC, microdilution in BHI 48 h. Format: cell-based, Staphylococcus aureus. As to conditions: Staphylococcus aureus; CF1A-L, normal strain; read-out: MIC.
The test system of assay [25] is S. aureus SCV CF1D-S. Description: MIC, microdilution in BHI 48 h. Format: cell-based, Staphylococcus aureus. The following applies: Staphylococcus aureus, SCVCF1DS.
Assay [26] relates to S. aureus ATCC BAA-41. The assay can be described thus: MIC, microdilution in CAMHB 24 h. Format: cell-based, Staphylococcus aureus. The following applies: Staphylococcus aureus, ATCC BAA-41 / MRSA; ATCC BAA-41; Human (HA); MRSA; read-out: MIC.
The subject of assay [27] is S. aureus SCV CF07-S. Description: MIC, microdilution in BHI 48 h (Examples 1, 3). Format: cell-based, Staphylococcus aureus.
In assay [28] the test system is S. aureus Newbould (normal strain). The assay can be described thus: MIC, microdilution in BHI 48 h. The following applies: Staphylococcus aureus; Newbould, normal strain; read-out: MIC. Format: cell-based, Staphylococcus aureus.
The test system of assay [29] is S. aureus SCV NewbouldΔhemB. The assay can be described thus: MIC, microdilution in BHI 48 h. Format: cell-based, Staphylococcus aureus.
Assay [30] concerns S. aureus MA078038. Description: MIC, microdilution in CAMHB 24 h. Format: cell-based, Staphylococcus aureus. The following applies: Staphylococcus aureus; MA078038; Human (CA); MRSA; read-out: MIC.
Assay [31] has as its system S. aureus CF07-L (normal strain). Description: MIC, microdilution in BHI 48 h (Examples 1, 3). Format: cell-based, Staphylococcus aureus.
[32] abbreviates: absence of tomatidine, read-out: MIC −TO.
[33] abbreviates: presence of tomatidine at 8 μg/ml, read-out: MIC +TO.

Converted amounts (≈) assume the structure as drawn. Read-outs that look alike come from different tables or passages of the source.

On to `CCn1cc(C(=O)O)c(=O)c2cc(F)c(N3CCNCC3)cc21` [Norfloxacin, norfloxacin], for which the MIC was 1 µg/mL (≈ 3.13 µM) in assay [1]; above 64 µg/mL in [2]; above 64 µg/mL in [3]; 1 µg/mL (≈ 3.13 µM) in assay [4]; above 64 µg/mL in [5]; 1 to 2 µg/mL (≈ 3.13 to 6.26 µM) in assay [6] (Human (SSTI), read-out: MIC). Besides, the MIC was 1 to 2 µg/mL (≈ 3.13 to 6.26 µM) in assay [6] (setting [32]); 1 to 2 µg/mL in assay [6] (setting [33]); 2 to 4 µg/mL (≈ 6.26 to 12.5 µM) in assay [7]; 0.5 to 1 µg/mL (≈ 1.57 to 3.13 µM) in assay [8]; above 64 µg/mL in assay [9]; 1 to 2 µg/mL (≈ 3.13 to 6.26 µM) in assay [10]. Further, the MIC in [11] is above 64 µg/mL; in assay [12] it was 1 µg/mL (≈ 3.13 µM); in assay [13] it was above 64 µg/mL; in [14], 1 to 2 µg/mL (≈ 3.13 to 6.26 µM); in [15], 0.5 µg/mL (≈ 1.57 µM); in [16] it was 1 µg/mL (≈ 3.13 µM). Besides, the MIC in assay [17] is 0.5 to 1 µg/mL (≈ 1.57 to 3.13 µM); in assay [18], above 64 µg/mL; in [20], 4 µg/mL (≈ 12.5 µM). Moreover, in assay [6], the “Fold (−TO/+TO)” value is listed as 1 fold. For the same compound, in assay [19], the “incorporation of radiolabeled precursors into the targeted macromolecules” value is “preferentially inhibited”.
For `CC[C@H]1OC(=O)[C@H](C)[C@@H](O[C@H]2C[C@@](C)(OC)[C@@H](O)[C@H](C)O2)[C@H](C)[C@@H](O[C@@H]2O[C@H](C)C[C@H](N(C)C)[C@H]2O)[C@](C)(O)C[C@@H](C)C(=O)[C@H](C)[C@@H](O)[C@]1(C)O` [Erythromycin, erythromycin], the MIC in [1] is 0.25 to 0.5 µg/mL (≈ 0.341 to 0.681 µM); in assay [2] it was above 64 µg/mL; in assay [3] it was above 64 µg/mL; in [4], 0.5 µg/mL (≈ 0.681 µM); in [5] it was above 64 µg/mL; in assay [6] (Human (SSTI), read-out: MIC), 0.5 µg/mL (≈ 0.681 µM). The MIC in [6] (setting [32]) is 0.5 µg/mL (≈ 0.681 µM); in assay [6] (setting [33]), 0.5 µg/mL; in [7] it was 0.5 µg/mL (≈ 0.681 µM); in [8], 0.12 to 0.25 µg/mL (≈ 0.164 to 0.341 µM); in [9] it was 0.5 to 1 µg/mL (≈ 0.681 to 1.36 µM); in assay [21] (ATCC 29213 + HQNO at 20 μg/ml) it was 0.25 µg/mL. Also, the MIC in assay [21] (Staphylococcus aureus, ATCC29213, ATCC 29213, without HQNO, read-out: MIC) was 0.12 to 0.25 µg/mL (≈ 0.164 to 0.341 µM); in assay [21] (Staphylococcus aureus, ATCC29213, ATCC 29213 in BHI, read-out: MIC) it was 0.12 to 0.25 µg/mL (≈ 0.164 to 0.341 µM); in assay [21] (Staphylococcus aureus, ATCC29213, ATCC 29213 in MHBCA, read-out: MIC), 0.12 to 0.5 µg/mL (≈ 0.164 to 0.681 µM); in assay [10], 0.25 to 0.5 µg/mL (≈ 0.341 to 0.681 µM); in [11] it was 0.5 to 2 µg/mL (≈ 0.681 to 2.73 µM); in assay [13] it was above 64 µg/mL. In addition, the MIC in [22] is above 64 µg/mL; in assay [14] it was 0.5 µg/mL (≈ 0.681 µM); in [23], above 64 µg/mL; in [15], 0.5 µg/mL (≈ 0.681 µM); in assay [16] it was 0.5 µg/mL (≈ 0.681 µM); in assay [24], 0.25 µg/mL (≈ 0.341 µM). The MIC in [17] is 0.5 µg/mL (≈ 0.681 µM); in [25], 0.12 µg/mL (≈ 0.164 µM); in assay [18] it was above 64 µg/mL; in assay [26], above 64 µg/mL; in assay [27] (CF07-S + HQNO at 20 μg/ml), 0.06 to 0.12 µg/mL; in assay [27] (CF07-S, without HQNO) it was 0.12 µg/mL (≈ 0.164 µM). The MIC is 0.12 µg/mL (≈ 0.164 µM) in assay [27] (Staphylococcus aureus, SCVCF07S); 0.25 µg/mL (≈ 0.341 µM) in [28]; above 16 µg/mL in [29] (NewbouldΔhemB, SCV, listed as ERY); above 16 µg/mL in assay [29] (Staphylococcus aureus); 64 µg/mL (≈ 87.2 µM) in [30]; 0.5 µg/mL (≈ 0.681 µM) in [20]. The MIC in assay [31] (CF07-L + HQNO at 20 μg/ml) was found to be 0.25 µg/mL; in assay [31] (CF07-L, without HQNO) it was 0.25 µg/mL (≈ 0.341 µM); in assay [31] (Staphylococcus aureus, CF07-L, normal strain, read-out: MIC), 0.25 µg/mL (≈ 0.341 µM). Also, in assay [6], the “Fold (−TO/+TO)” value turned out to be 1 fold.
As for `CO[C@H]1/C=C/O[C@@]2(C)Oc3c(C)c(O)c4c(O)c(c(/C=N/N5CCN(C)CC5)c(O)c4c3C2=O)NC(=O)/C(C)=C\C=C\[C@H](C)[C@H](O)[C@@H](C)[C@@H](O)[C@@H](C)[C@H](OC(C)=O)[C@@H]1C` [rifampicin], the MIC in assay [12] was 0.008 to 0.015 µg/mL (≈ 0.00972 to 0.0182 µM).
On to `O=C(N[C@H](CO)[C@H](O)c1ccc([N+](=O)[O-])cc1)C(Cl)Cl` [chloramphenicol], for which the MIC in [12] lay in the range of 8 to 16 µg/mL (≈ 24.8 to 49.5 µM). Moreover, the “incorporation of radiolabeled precursors into the targeted macromolecules” value in [19] is recorded as “preferentially inhibited”.
